Experimental data from patent US4642355A, “Proline derivatives” (Otsuka Pharmaceutical Factory, Inc., priority 1984, dated 1987).
Structures can show the parent of a compound that is named as a salt.

Assays:
[1] = molecular target: T1, angiotensin-converting enzyme (ACE) (Oryctolagus cuniculus, UniProt P12822); experiment: Inhibitory activity against angiotensin-converting enzyme (ACE); type: biochemical, rabbit; settings: for ACE inhibitory activity higher than Test Compound No. 4 (fold): compared with Test Compound No. 4; for IC50: enzyme from rabbit lung acetone powder, substrate hippurylhistidyl-leucine, 37° C.
T1 construct: enzyme solution prepared from rabbit lung acetone powder; tissue Sigma Chemical Co., Ltd., U.S.A; host or cells: rabbit lung (acetone powder)
T1 sequence (P12822 34-1310): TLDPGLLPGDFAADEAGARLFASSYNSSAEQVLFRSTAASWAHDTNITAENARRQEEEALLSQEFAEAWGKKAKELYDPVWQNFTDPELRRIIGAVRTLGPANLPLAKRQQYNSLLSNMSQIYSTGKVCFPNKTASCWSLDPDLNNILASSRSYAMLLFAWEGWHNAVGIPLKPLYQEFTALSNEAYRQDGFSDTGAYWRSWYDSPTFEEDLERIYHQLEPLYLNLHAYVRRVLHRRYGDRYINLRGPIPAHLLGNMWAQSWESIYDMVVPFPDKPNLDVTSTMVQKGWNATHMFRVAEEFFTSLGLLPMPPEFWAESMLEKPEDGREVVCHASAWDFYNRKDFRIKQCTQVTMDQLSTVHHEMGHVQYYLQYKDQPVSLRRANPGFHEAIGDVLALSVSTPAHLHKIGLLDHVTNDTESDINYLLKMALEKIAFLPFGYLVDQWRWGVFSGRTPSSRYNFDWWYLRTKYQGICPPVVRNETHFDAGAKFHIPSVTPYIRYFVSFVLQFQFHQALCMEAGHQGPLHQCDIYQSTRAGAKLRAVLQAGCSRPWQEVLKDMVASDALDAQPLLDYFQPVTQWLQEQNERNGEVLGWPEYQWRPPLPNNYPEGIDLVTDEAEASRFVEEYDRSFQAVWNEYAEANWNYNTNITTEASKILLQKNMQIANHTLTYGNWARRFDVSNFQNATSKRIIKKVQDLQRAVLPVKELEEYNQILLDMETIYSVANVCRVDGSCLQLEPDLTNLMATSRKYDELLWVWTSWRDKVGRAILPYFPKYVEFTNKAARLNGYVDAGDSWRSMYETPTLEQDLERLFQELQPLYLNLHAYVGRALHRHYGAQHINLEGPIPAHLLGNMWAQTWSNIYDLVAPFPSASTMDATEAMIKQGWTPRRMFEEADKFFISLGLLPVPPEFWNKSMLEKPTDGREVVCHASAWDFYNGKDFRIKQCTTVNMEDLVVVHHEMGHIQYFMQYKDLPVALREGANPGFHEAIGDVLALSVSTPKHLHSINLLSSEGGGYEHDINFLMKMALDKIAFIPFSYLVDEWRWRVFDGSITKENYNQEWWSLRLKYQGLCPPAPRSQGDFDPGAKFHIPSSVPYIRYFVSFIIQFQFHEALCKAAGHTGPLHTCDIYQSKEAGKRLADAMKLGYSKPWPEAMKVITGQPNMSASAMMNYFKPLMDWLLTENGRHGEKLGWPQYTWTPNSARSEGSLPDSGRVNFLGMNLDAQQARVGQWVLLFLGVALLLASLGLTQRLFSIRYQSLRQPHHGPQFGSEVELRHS
Procedure: Inhibitory activity against angiotensin-converting enzyme (ACE)
A 100 μl quantity of an enzyme solution prepared from rabbit lung acetone powder (product of Sigma Chemical Co., Ltd., U.S.A.) was mixed with 100 μl of a sample solution. The mixture was gently shaken at 37° C. for 10 minutes. To the reaction mixture was added 100 μl of a solution containing 6.99 mM of hippurylhistidyl-leucine (product of Peptide Institute, Inc., Japan) as a substrate. The mixture was reacted at 37° C. for 45 minutes while being shaken. The reaction was terminated by addition of 200 μl of a 1N sulfuric acid aqueous solution to the reaction mixture. Sodium chloride (saturation amount) and diethyl ether (2 ml) were added to the reaction mixture to extract the hippuric acid formed by the reaction. The resulting mixture was vigorously shaken for 15 minutes and centrifuged at 2000 rpm for 5 minutes. A 1.5 ml quantity of the ether layer was separated. After the solvent was distilled off, the residue was redissolved in 1.5 ml of distilled water and the absorbance at 228 nm was measured. A control was prepared by repeating the same procedure as above except that 100 μl of distilled water was used in place of the sample solution.
The inhibitory activity was calculated by deducting the absorbance value of the residue formed by addition of the sample solution from that of the control, and the resulting value was divided by the absorbance value of the control and multiplied by 100, thereby giving a percent inhibition. The inhibitory activity was expressed as IC50, i.e., the concentration of the sample solution in the reaction mixture in which concentration 50% inhibition is achieved.
The test compounds used in the experiment are shown below.

[2] = tested on: angiotensin-converting enzyme (ACE); experiment: ACE inhibitory effect in normotensive rats (inhibition of pressor response to angiotensin I); type: in vivo; settings: 1 mg/kg directly to the stomach, male Wistar rats, urethane anesthesia, AI/AII ratio
Procedure: ACE Inhibitory effect in normotensive rats
Male Wistar rats weighing 200 to 400 g were anesthetized by the intraperitoneal injection of urethane (1.25 g/kg) and held in the supine position. The degree of inhibition of pressor response to angiotensin (A) I was determined using these rats. The blood pressure was measured with a femoral artery cannula connected to a transducer (product of Nihon Kohden Kabushiki Kaisha, Japan, Model MPU-0.5-290-0-III) and recorded in terms of a mean blood pressure value through a carrier amplifier (product of Nihon Kohden Kabushiki Kaisha, Japan, Model RP-5) on a multipurpose polygraph (product of Nihon Kohden Kabushiki Kaisha, Japan, Model RM-85). The rats were set in an experimental device and left therein for 1 hour to stabilize the hemodynamics. Then experiments were commenced. Since the magnitude of the pressor response to AI varies with time, the ratio of the responses to AI and AII (AI/AII ratio) was used to determine the magnitude of the pressor response to AI which ratio remained more constant. Through the cannulated femoral vein, AI (300 ng/kg) was administered first and AII (300 ng/kg) was given in 5 minutes to measure an AI/AII ratio. At 30 minutes after the first administration of AI, AI (300 ng/kg) was similarly administered and AII (300 ng/kg) was given in 5 minutes, followed by measuring an AI/AII ratio. This procedure was repeated until a constant value of AI/AII ratio was obtained. (The mean value of AI/AII ratios each resulting from the repeated procedure is represented as "C" in an equation to be shown later). At 10 minutes after the final administration of AII, an aqueous solution containing 1 mg/kg of each test compound was given directly to the stomach through a vinyl tube. At 10 minutes after administration of the test compound, AI (300 ng/kg) was given and at 5 minutes later, AII (300 ng/kg) was administered, followed by measurement of the AI/AII ratio (which was represented as "E" in the following equation). An ACE percent inhibition was calculated according to the equation indicated below. [formula]
Subsequently at each time of 60, 120 and 240 minutes after the administration of the test compound, AI (300 ng/kg) was given in the same manner as above and AII (300 ng/kg) was administered in 5 minutes, whereupon an ACE percent inhibition was calculated in the same way.
The results are shown below in Table 26 in which the test compounds listed are those prepared in the Examples indicated therein.

Row | Compound | ACE inhibitory activity higher than Test Compound No. 4 (fold) [1] | IC50 [1] [nM] | ACE Percent Inhibition, mean ± SD ([2]; 15 min. after administration) [%] | ACE Percent Inhibition, mean ± SD ([2]; 60 min. after administration) [%] | ACE Percent Inhibition, mean ± SD ([2]; 120 min. after administration) [%] | ACE Percent Inhibition, mean ± SD ([2]; 240 min. after administration) [%]
1 | CCCCCCSC[C@H](NC(C)C(=O)N1CCC[C@H]1C(=O)O)C(=O)O (single isomer, unassigned) [Test Compound 2] | about 9.4 times | 1.35 |  |  |  | 
2 | COC(=O)[C@H](CCSC)NC(C)C(=O)N1CCC[C@H]1C(=O)O (stereo partly drawn) [Test Compound 5, N--[(S)--1-methoxycarbonyl-3-methylthiopropyl]-(R,S)--alanyl-(S)--proline hydrochloride, reference compound] |  | 5240 | 1 ± 5 | 6 ± 4 | 7 ± 6 | 9 ± 1
3 | CCCCCCSC[C@H](NC(C)C(=O)N1CCC[C@H]1C(=O)O)C(=O)O (single isomer, unassigned) [Test Compound 1] | about 24 times | 0.521 |  |  |  | 
